# Laboratory results taken from patent US11696907B2, “Wound healing composition” (WINERGEN TECHNOLOGIES INC., LTD., priority 2016, dated 2023).
# Key:
# [1] = tested on: certain wounds; assay: Effect of unsaturated fatty acids on wounds; set-up: species or system patients; settings: in vivo
# [2] = tested on: wounds and skin damage; assay: Treatment effect of palmitic acid and behenic acid alone versus combined
"inflammation to certain wounds, causing pain in some patients [1]",SMILES,treatment effect of either acid alone [2]
harmful inflammation,CCCCC/C=C\C/C=C\C/C=C\C/C=C\CCCC(=O)O [arachidonic acid],
,CCCCCCCCCCCCCCCCCCCCCC(=O)O [behenic acid],less significant
harmful inflammation,CCCCC/C=C\C/C=C\CCCCCCCC(=O)O [linoleic acid],
,CCCCCCCCCCCCCCCC(=O)O [palmitic acid],less significant
